The source of these data is patent US11591326B2, “Inhibitors of protein arginine methyltransferase 5 (PRMT5), pharmaceutical products thereof, and methods thereof” (PHARMABLOCK SCIENCES (NANJING), INC., priority 2018, dated 2023).

The term IC50 denotes the concentration that gives 50% inhibition.

For the assay, the target named is Human recombinant PRMT5 in complex with human recombinant MEP50 (Homo sapiens (Human), UniProt O14744). Briefly: PRMT5/MEP50 AlphaLISA enzyme inhibitory assay. The format is biochemical. The following applies: PRMT5/MEP50 25 nM, SAM 10 μM, Biotin-H4 peptide 30 nM. The text has this:
Human recombinant PRMT5 in complex with human recombinant MEP50, co-expressed in an insect cell/baculovirus expression system was purchased from Reaction Biology (Malvern, Pa.). […] Anti-H4R3-Me AlphaLISA acceptor beads and Streptavidin labeled AlphaLISA donor beads were obtained from PerkinElmer (Waltham, Mass.). S-adenosylmethionine (SAM), Tween20, dimethylsulfoxide (DMSO), and Tris buffer were obtained from Sigma at the highest level of purity available.
General Procedure for PRMT5/MEP50 AlphaLISA Enzyme Inhibitory Assays: Assays were performed in the buffer consisting of 50 mM Tris, pH 8.5, 5 mM MgCl2, 50 mM NaCl with 0.01% Tween20 and 1 mM DTT added right before the assay. 2.5 μL of compound solution in the assay buffer with 4% DMSO and 5 μL of PRMT5/MRP50 complex/SAM mixture solution in the assay buffer which was pre-incubated for 30 minutes were added into a white low volume 384 well microtiter plate. This mixture solution was incubated for 15 minutes with gentle shaking at room temperature. Methyl transfer reaction was initiated by adding 2.5 μL of Biotin-H4 (1-21) peptide substrate solution in the assay buffer. Final concentrations of PRMT5/MEP50, SAM, Biotin-H4 peptide substrate, and DMSO were 25 nM, 10 μM, 30 nM, and 1%, respectively. The reaction was allowed to perform for 120 minutes in dark with gentle shaking at room temperature after which 5 μL of Anti-H4R3-Me AlphaLISA acceptor beads in detection buffer from the manufacturer was added into the reaction mixture followed by incubation for 60 minutes. 10 μL of Streptavidin labeled AlphaLISA donor beads in detection buffer was added into the mixture followed by 30 minute incubation. Final acceptor and donor beads concentrations were 10 μg/mL. Plates were read on an Envision multimode plate reader from PerkinElmer (Waltham Mass., USA) with an excitation wavelength of 680 nm and emission wavelength of 615 nm. IC50 values of inhibitors were obtained by fitting the fluorescence intensity vs inhibitor concentrations in a sigmoidal dose-response curve (variable slopes, four parameters) using Prism 7 (La Jolla, Calif.).
Background: Alpha assays give light when donor and acceptor beads are brought close together.

Sequence of Human recombinant PRMT5 in complex with human recombinant MEP50 (O14744 whole entry): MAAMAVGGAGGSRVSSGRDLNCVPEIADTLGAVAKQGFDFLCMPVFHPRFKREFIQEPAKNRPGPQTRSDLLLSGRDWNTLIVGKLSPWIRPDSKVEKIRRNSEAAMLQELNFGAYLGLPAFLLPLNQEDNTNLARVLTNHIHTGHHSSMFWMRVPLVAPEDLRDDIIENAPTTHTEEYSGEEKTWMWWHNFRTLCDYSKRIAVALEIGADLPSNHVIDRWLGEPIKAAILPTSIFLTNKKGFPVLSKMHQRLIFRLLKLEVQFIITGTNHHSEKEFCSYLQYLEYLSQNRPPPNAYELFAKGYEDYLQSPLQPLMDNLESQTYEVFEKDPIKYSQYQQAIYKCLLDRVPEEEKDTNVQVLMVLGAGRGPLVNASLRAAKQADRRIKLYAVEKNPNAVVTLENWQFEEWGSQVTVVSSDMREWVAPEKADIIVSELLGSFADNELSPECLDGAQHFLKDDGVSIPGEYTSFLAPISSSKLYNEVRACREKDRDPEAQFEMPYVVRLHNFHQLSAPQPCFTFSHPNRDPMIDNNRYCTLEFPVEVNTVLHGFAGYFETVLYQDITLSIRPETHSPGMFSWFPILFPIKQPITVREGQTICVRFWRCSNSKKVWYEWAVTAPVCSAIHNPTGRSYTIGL
Sequence of Human recombinant PRMT5 in complex with human recombinant MEP50 (Q9BQA1 whole entry partner): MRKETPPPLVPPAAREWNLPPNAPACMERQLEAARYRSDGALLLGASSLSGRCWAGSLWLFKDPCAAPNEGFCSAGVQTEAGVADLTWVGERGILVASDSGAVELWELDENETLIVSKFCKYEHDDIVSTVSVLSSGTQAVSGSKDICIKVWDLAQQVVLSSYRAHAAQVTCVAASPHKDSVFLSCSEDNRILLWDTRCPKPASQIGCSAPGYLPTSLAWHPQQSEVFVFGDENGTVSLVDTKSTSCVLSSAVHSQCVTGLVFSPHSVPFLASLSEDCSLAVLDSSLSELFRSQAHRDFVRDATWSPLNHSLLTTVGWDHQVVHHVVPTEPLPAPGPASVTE

In the case of `CC(=O)N1CCC(Nc2ccc3c(c2)C(=O)N(CC(O)CN2CCc4ccccc4C2)CC3)CC1` (racemic) [Compound 24, 7-((1-acetylpiperidin-4-yl)amino)-2-(3-(3,4-dihydroisoquinolin-2(1H)-yl)-2-hydroxypropyl)-3,4-dihydroisoquinolin-1(2H)-one], the IC50 came out at 14 nM.
Next, `O=C1c2cc(Nc3ccnnc3)ccc2OCCN1CC(O)CN1CCc2ccccc2C1` (racemic) [Compound 30, 4-(3-(3,4-dihydroisoquinolin-2(1H)-yl)-2-hydroxypropyl)-7-(pyridazin-4-ylamino)-3,4-dihydrobenzo[f][1,4]oxazepin-5(2H)-one]: 13 nM.
Next, `O=C1c2cc(NC3COC3)ccc2CCN1CC(O)CN1CCc2ccccc2C1` (centres unmarked) [Compound 1, 2-(3-(3,4-dihydroisoquinolin-2(1H)-yl)-2-hydroxypropyl)-7-(oxetan-3-ylamino)-3,4-dihydroisoquinolin-1(2H)-one]: 97 nM; `CC(=O)N1CCC(Nc2cc(F)c3c(c2)C(=O)N(C[C@@H](O)CN2CCc4ccccc4C2)CCO3)CC1` [Compound 2b, (S)-7-((1-acetylpiperidin-4-yl)amino)-4-(3-(3,4-dihydroisoquinolin-2(1H)-yl)-2-hydroxypropyl)-9-fluoro-3,4-dihydrobenzo[f][1,4]oxazepin-5(2H)-one]: 159 nM; `O=c1c2cc(NC3COC3)ccc2ncn1CC(O)CN1CCc2ccccc2C1` (centres unmarked) [Compound 3, 3-(3-(3,4-dihydroisoquinolin-2(1H)-yl)-2-hydroxypropyl)-6-(oxetan-3-ylamino)quinazolin-4(3H)-one]: 568 nM.
Consider `O=c1c2cc(NC3COC3)ccc2ccn1CC(O)CN1CCc2ccccc2C1` (centres unmarked) [Compound 4, 2-(3-(3,4-dihydroisoquinolin-2(1H)-yl)-2-hydroxypropyl)-7-(oxetan-3-ylamino)isoquinolin-1(2H)-one], for which the IC50 amounted to 303 nM.
In the case of `O=C1c2cc(NC3COC3)ccc2OCCN1CC(O)CN1CCc2ccccc2C1` (centres unmarked) [Compound 5, 4-(3-(3,4-dihydroisoquinolin-2(1H)-yl)-2-hydroxypropyl)-7-(oxetan-3-ylamino)-3,4-dihydrobenzo[f][1,4]oxazepin-5(2H)-one], the IC50 was determined as 131 nM.
Next, `CC(=O)N1CC(Nc2ccc3c(c2)C(=O)N(CC(O)CN2CCc4ccccc4C2)CC3)C1` (centres unmarked) [Compound 6, 7-((1-acetylazetidin-3-yl)amino)-2-(3-(3,4-dihydroisoquinolin-2(1H)-yl)-2-hydroxypropyl)-3,4-dihydroisoquinolin-1(2H)-one]: 77 nM.
Next, `CS(=O)(=O)N1CC(Nc2ccc3c(c2)C(=O)N(C[C@@H](O)CN2CCc4ccccc4C2)CC3)C1` [Compound 8, (S)-2-(3-(3,4-dihydroisoquinolin-2(1H)-yl)-2-hydroxypropyl)-7-((1-(methylsulfonyl)azetidin-3-yl)amino)-3,4-dihydroisoquinolin-1(2H)-one]: 232 nM; `CN1CC(Nc2ccc3c(c2)C(=O)N(C[C@@H](O)CN2CCc4ccccc4C2)CC3)C1` [Compound 9, (S)-2-(3-(3,4-dihydroisoquinolin-2(1H)-yl)-2-hydroxypropyl)-7-((1-methylazetidin-3-yl)amino)-3,4-dihydroisoquinolin-1(2H)-one]: 2440 nM.
Next, `O=C1c2cc(N[C@H]3CCOC3)ccc2CCN1C[C@@H](O)CN1CCc2ccccc2C1` [Compound 10, 2-((S)-3-(3,4-dihydroisoquinolin-2(1H)-yl)-2-hydroxypropyl)-7-(((S)-tetrahydrofuran-3-yl)amino)-3,4-dihydroisoquinolin-1(2H)-one]: 1010 nM; `O=C1c2cc(N[C@@H]3CCOC3)ccc2CCN1C[C@@H](O)CN1CCc2ccccc2C1` [Compound 11, 2-((S)-3-(3,4-dihydroisoquinolin-2(1H)-yl)-2-hydroxypropyl)-7-(((R)-tetrahydrofuran-3-yl)amino)-3,4-dihydroisoquinolin-1(2H)-one]: 462 nM; `Cn1cc(Nc2ccc3c(c2)C(=O)N(CC(O)CN2CCc4ccccc4C2)CC3)cn1` (centres unmarked) [Compound 12]: 29 nM.
Turning to `Cn1cc(Nc2ccc3c(c2)C(=O)N(C[C@@H](O)CN2CCc4ccccc4C2)CC3)cn1` [Compound 12b, (S)-2-(3-(3,4-dihydroisoquinolin-2(1H)-yl)-2-hydroxypropyl)-7-((1-methyl-1H-pyrazol-4-yl)amino)-3,4-dihydroisoquinolin-1(2H)-one], the IC50 worked out at 235 nM.
Next, `Cn1cc(-c2ccc3c(c2)C(=O)N(C[C@@H](O)CN2CCc4ccccc4C2)CC3)cn1` [Compound 13, (S)-2-(3-(3,4-dihydroisoquinolin-2(1H)-yl)-2-hydroxypropyl)-7-(1-methyl-1H-pyrazol-4-yl)-3,4-dihydroisoquinolin-1(2H)-one]: 578 nM; `O=C1c2cc(-c3cncnc3)ccc2CCN1CC(O)CN1CCc2ccccc2C1` (centres unmarked) [Compound 14, 2-(3-(3,4-dihydroisoquinolin-2(1H)-yl)-2-hydroxypropyl)-7-(pyrimidin-5-yl)-3,4-dihydroisoquinolin-1(2H)-one]: 158 nM; `CC1(C)CN(CC(O)CN2CCc3ccccc3C2)C(=O)c2cc(NC3COC3)ccc21` (centres unmarked) [Compound 15, 2-(3-(3,4-dihydroisoquinolin-2(1H)-yl)-2-hydroxypropyl)-4,4-dimethyl-7-(oxetan-3-ylamino)-3,4-dihydroisoquinolin-1(2H)-one]: 217 nM.
With `O=C1c2cc(NC3COC3)cnc2CCN1CC(O)CN1CCc2ccccc2C1` (centres unmarked) [Compound 16, 6-(3-(3,4-dihydroisoquinolin-2(1H)-yl)-2-hydroxypropyl)-3-(oxetan-3-ylamino)-7,8-dihydro-1,6-naphthyridin-5(6H)-one] the figure was 447 nM.
With `CC(=O)N1CCC(Nc2cc3c(cc2F)OCCN(C[C@H](O)CN2CCc4ccccc4C2)C3=O)CC1` [Compound 17a, (R)-7-((1-acetylpiperidin-4-yl)amino)-4-(3-(3,4-dihydroisoquinolin-2(1H)-yl)-2-hydroxypropyl)-8-fluoro-3,4-dihydrobenzo[f][1,4]oxazepin-5(2H)-one] the figure was 248 nM; with `CC(=O)N1CCC(Nc2cc3c(cc2F)OCCN(C[C@@H](O)CN2CCc4ccccc4C2)C3=O)CC1` [Compound 17b, (S)-7-((1-acetylpiperidin-4-yl)amino)-4-(3-(3,4-dihydroisoquinolin-2(1H)-yl)-2-hydroxypropyl)-8-fluoro-3,4-dihydrobenzo[f][1,4]oxazepin-5(2H)-one], 722 nM.
As to `O=C1c2cc(NC3CCOCC3)cnc2CCN1CC(O)CN1CCc2ccccc2C1` (centres unmarked) [Compound 18, 6-(3-(3,4-dihydroisoquinolin-2(1H)-yl)-2-hydroxypropyl)-3-((tetrahydro-2H-pyran-4-yl)amino)-7,8-dihydro-1,6-naphthyridin-5(6H)-one], the IC50 is 2220 nM.
`CC(=O)N1CCC(Nc2cnc3c(c2)C(=O)N(CC(O)CN2CCc4ccccc4C2)CC3)CC1` (centres unmarked) [Compound 19, 3-((1-acetylpiperidin-4-yl)amino)-6-(3-(3,4-dihydroisoquinolin-2(1H)-yl)-2-hydroxypropyl)-7,8-dihydro-1,6-naphthyridin-5(6H)-one]: the IC50 came out at 623 nM.
Take `Cn1cc(Nc2cnc3c(c2)C(=O)N(CC(O)CN2CCc4ccccc4C2)CC3)cn1` (centres unmarked) [Compound 20, 6-(3-(3,4-dihydroisoquinolin-2(1H)-yl)-2-hydroxypropyl)-3-((1-methyl-1H-pyrazol-4-yl)amino)-7,8-dihydro-1,6-naphthyridin-5(6H)-one]: the IC50 is 132 nM.
